Laboratory results as given in patent US20260001949A1, “NEUTRALIZATION OF ACYL-COA BINDING PROTEIN FOR THE TREATMENT OF CARDIAC DYSFUNCTION” (INSERM (INSTITUT NATIONAL DE LA SANTÉ ET DE LA RECHERCHE …, priority 2022, published 2026).

Columns and labels:
[1] = system: p21; test: Immunostaining of senescence marker p21 in cardiac sections of doxorubicin-treated mice; type: in vivo; details: DOX cumulative 20 mg/kg over 4 weeks; vs saline; FIGS. 2A-2B
Method: Immunohistochemistry of p21: On the day of euthanasia, left ventricles were briefly rinsed with PBS and fixed for 16-24 h in a 4% formaldehyde solution (F8775, Sigma, diluted in PBS, pH=7.4). After fixation, tissues were transferred to 70% ethanol until inclusion in paraffin. Paraffin-embedded tissue were cut to 2-3 μm sections, air dried and let to dry completely at 60° C. overnight. Cell Conditioning 1 buffer (64/457,5001, Roche) was used for antigen retrieval, and casein (ref: 760-219, Roche) was used as blocking agent. The antibody directed against p21 (clone HUGO 291H/B5, CNIO) was diluted 1:50 in EnVision FLEX Antibody Diluent (K800621, Dako-Agilent). Staining was performed on the Ventana discovery XT platform for 60 minutes (ready-to-use). […] The specificity of the staining was assessed in each organ by using rat IgG isotype control (6-001-F, R&D Systems) as primary antibody.
Quantification of the p21 staining was done on the QuPath analysis software after blinding the samples names. […] Non-cardiomyocytes regions were excluded from the area of analysis and, after color deconvolution, a threshold was applied to automatically quantify the p21+ cardiomyocytes area. The average value in the 10 regions of interest was plotted for each animal, and analyzed by two-way ANOVA to determine the effect of doxorubicin treatment, ACBP/DBI neutralization, and their interaction.

[2] = system: doxorubicin (DOX)-treated C57Bl/6J female mice; test: Anthracycline (doxorubicin)-induced cardiotoxicity model, echocardiography and organ weights; type: in vivo; details: chronic DOX, cumulative dose 20 mg/kg body weight IP over 4 weeks, vs saline
Method: Cardiac toxicity experiments: Eight-week-old C57Bl/6J female mice were purchased from Envigo (Gannat, France). Following 2 weeks of acclimatization, mice were randomized (1:1) to receive either mouse monoclonal anti-ACBP-neutralizing antibody (5 mg/kg body weight, injected intraperitoneally once per week) or mouse isotype IgG (negative control; 5 mg/kg body weight). Each group was further randomized (1:1) to receive a weekly intraperitoneal injection of saline or doxorubicin (5 mg/kg body weight; cumulative dose of 20 mg/kg body weight over 4 weeks) (Sigma, #MKCM8540). Of note, anti-ACBP was always administered 24 hours prior to doxorubicin injection. All mice used in this study were housed in a temperature-controlled environment with 12 h light/dark cycles and ad libitum access to food and water.
Echocardiography. Mice were lightly anesthetized (5% for induction; 1.5% isoflurane for maintenance) and body temperature was kept at 37° C. using a temperature-controlled heating platform. […] Ejection fraction was determined to assess systolic function, while diastolic function was evaluated using the ratio between peak early-filling velocity of transmitral flow (E) and the corresponding mitral valve annulus velocity (e′) determined using pulsed-wave and tissue Doppler imaging, respectively. […]

- p21 staining in cardiomyocytes [1]: increased the presence of p21 staining
SMILES: COc1cccc2c1C(=O)c1c(O)c3c(c(O)c1C2=O)C[C@@](O)(C(=O)CO)C[C@@H]3O[C@H]1C[C@H](N)[C@H](O)[C@H](C)O1 [DOX, doxorubicin]
- left ventricular ejection fraction ([2]; FIG. 1B): clearly reduced
- ventricular dilation ([2]; FIG. 1C): causing ventricular dilation
